No end group written: not given here.
Assays:
Format in all cases: cell-based, human
[1] = tested on: TAP1 serum (Taiwan Miltenberger antibody positive sample); experiment: Anti-MUT serum (TAP1) reactivity of modified RBCs (saline and AHG); design: key: 0 or ‘−’ no agglutination; 0 or ‘−’ no agglutination; 1+ or 3=very weak agglutination; 1+ or 3=very weak agglutination; 2+ or 5=weak agglutination; 2+ or 5=weak agglutination; 3+ or 8=moderate strong agglutination; 3+ or 8=moderate strong agglutination; 4+ or 10/12=strong agglutination; 4+ or 10/12=strong agglutination; 4+ or 10/12=strong agglutination
Method: The suspensions are either: • 1. incubated for 2 hours at 37° C. before being washed and suspended in a cell medium for serological analysis at a concentration of 0.8 to 3% (Method 1); or • 2. incubated for 3 to 4 hours at room temperature (circa 25° C.) followed by 18 hours at 4° C. before being washed and suspended in a cell medium for serological analysis at a concentration of 0.8 to 3% (Method 2).
Serological reactions are graded or scored by either of two established systems (0 or ‘−’ no agglutination, 1+ or 3=very weak agglutination, 2+ or 5=weak agglutination, 3+ or 8=moderate strong agglutination, 4+ or 10/12=strong agglutination)

[2] = tested on: sera reactive with modified RBCs; experiment: Neutralisation of reactive sera with free peptide, retested against modified RBCs (BioVue); design: key: 0 or ‘−’ no agglutination; 0 or ‘−’ no agglutination; 1+ or 3=very weak agglutination; 1+ or 3=very weak agglutination; 2+ or 5=weak agglutination; 2+ or 5=weak agglutination; 3+ or 8=moderate strong agglutination; 3+ or 8=moderate strong agglutination; 4+ or 10/12=strong agglutination; 4+ or 10/12=strong agglutination; 4+ or 10/12=strong agglutination; settings: cells modified with the peptide-lipid construct M22; AHG test in BioVue
Source text: Optionally, where F is a peptide, the method includes the preliminary step of: • Adding an amount of the peptide to the sample of the serum; where the amount of the peptide is sufficient to neutralize non-specific agglutination or confirm specificity of the reactive antibody.

[3] = tested on: Miltenberger antibody positive sera; experiment: BioVue AHG card column agglutination serology of modified red blood cells; design: key: 0 or ‘−’ no agglutination; 0 or ‘−’ no agglutination; 1+ or 3=very weak agglutination; 1+ or 3=very weak agglutination; 2+ or 5=weak agglutination; 2+ or 5=weak agglutination; 3+ or 8=moderate strong agglutination; 3+ or 8=moderate strong agglutination; 4+ or 10/12=strong agglutination; 4+ or 10/12=strong agglutination; 4+ or 10/12=strong agglutination
antibody negative serums = experiment: False positive reactions of modified RBCs with antibody negative serums/plasma; design: key to Reaction score BioVue AHG, PAC samples 1-46, 49, 50, 52, 53 / Reaction score BioVue AHG, PAC sample 47 / Reaction score BioVue AHG, PAC sample 48 / Reaction score BioVue AHG, PAC sample 51 / agglutination score, T series serum 2 / agglutination score, T series serum 42 / agglutination score, T series serum 63 / agglutination score, T series serum 62 / agglutination score, T series serum 7 / agglutination score, T series serum 20 / agglutination score, T series serum 48 / agglutination score, T series serum 22 / agglutination score, T series serum 39 / agglutination score, T series serum 23 / agglutination score, T series serum 30 / agglutination score, T series serum 4 / agglutination score, T series serum 31 / agglutination score, T series serum 44 / agglutination score, T series serum 61 / agglutination score, T series serum 18 / agglutination score, T series serum 21 / agglutination score, T series serum 28 / agglutination score, T series serum 55 / agglutination score, false positive serum T18 / agglutination score, false positive serum T21 / agglutination score, false positive serum T28 / agglutination score, false positive serum T55 / agglutination score, false positive serum T78 / agglutination score, false positive serum T92: 0 or ‘−’ no agglutination; 0 or ‘−’ no agglutination; 1+ or 3=very weak agglutination; 1+ or 3=very weak agglutination; 2+ or 5=weak agglutination; 2+ or 5=weak agglutination; 3+ or 8=moderate strong agglutination; 3+ or 8=moderate strong agglutination; 4+ or 10/12=strong agglutination; 4+ or 10/12=strong agglutination; 4+ or 10/12=strong agglutination
[4] = Australia, Melb Path, 45 tested, construct 50 μg/ml
[5] = Australia, RNSH, 500 tested, construct 50 μg/ml
[6] = Malaysia, UMMC, 749 tested, construct 50 μg/ml
[7] = Philippines, Metrop Hosp, 60 tested, construct 50 μg/ml
[8] = blood donor plasma, construct 50 μg/ml (2 hours, 37° C.)

## M22: DOPE peptide-lipid construct: MUTK peptide SQTNDKHKRD, leader c, spacer CMG(2) (SQTNDKHKRDC; also: DOPE peptide-lipid construct via leader Cys, spacer CMG(2))
[1]; construct 10 μg/ml
  TAP 1 Serum, AHG score: 5
  TAP 1 Serum, Saline score: 0
[1]; construct 20 μg/ml
  TAP 1 Serum, AHG score: 8
  TAP 1 Serum, Saline score: 0
[1]; construct 50 μg/ml
  TAP 1 Serum, AHG score: 8
  TAP 1 Serum, Saline score: 0
[1]; construct 50 μg/ml (2 hours, 37° C.)
  Reactivity with anti-MUT serum TAP1: 8
[1]; construct 100 μg/ml
  TAP 1 Serum, AHG score: 8
  TAP 1 Serum, Saline score: 0
[1]; construct 200 μg/ml
  TAP 1 Serum, AHG score: 10
  TAP 1 Serum, Saline score: 0
[2]
  Pre-neutralisation serology, PAC74: 8
  Pre-neutralisation serology, TAP1: 8
[3]; construct 50 μg/ml
  BioVue score vs TAP1: 8
  BioVue score vs positive sample 2 T217 (T): 0
  BioVue score vs positive sample 3 T165 (Mur): 0
  BioVue score vs positive sample 4 T7202 (M): 0
  BioVue score vs positive sample 8 T5896 (M + K + Mur): 0
[3]; construct 100 μg/ml
  TAP 2 Serum BioVue AHG score: 0
Antibody negative serums; Australia, CSL, 100 tested, construct 50 μg/ml
  % Positive, BioVue: 3.0%
Antibody negative serums; Australia, CSL, 100 tested, construct 50 μg/ml, 3 h RT then 18 h 4° C.
  Number Positive, BioVue: 3
Antibody negative serums; [4]
  % Positive, BioVue: 4.5%
  Number Positive, BioVue: 2
Antibody negative serums; [5]
  % Positive, BioVue: 0.4%
  % Positive, DiaMed: 0.4%
  Number Positive, BioVue: 2
  Number Positive, DiaMed: 2
Antibody negative serums; [6]
  % Positive, BioVue: 2.5%
  Number Positive, BioVue: 19
Antibody negative serums; [7]
  % Positive, Tube: 0%
  Number Positive, Tube: 0
Antibody negative serums; [8]
  Reaction score BioVue AHG, PAC sample 47: 0
  Reaction score BioVue AHG, PAC sample 48: 0
  Reaction score BioVue AHG, PAC sample 51: 0
  Reaction score BioVue AHG, PAC samples 1-46, 49, 50, 52, 53: 0
Antibody negative serums; panel of blood donor plasma samples (PAC), BioVue AHG, construct 50 μg/ml
  % False Positives: 0%

From patent publication US10919941B2, “Functional lipid constructs” (KODE BIOTECH LIMITED, priority 2007, dated 2021)
